Test results published in patent US20070219220A1, “Pyrazolopyrimidinethione Derivatives, Salts and Solvates Thereof, Preparation Methods and Use Thereof” (priority 2003, published 2007).

How the values were obtained:
[1] = test system: anesthetized dogs; assay: Blood pressure, heart rate and respiration of anesthetized dogs (Example 11); format: in vivo; conditions: oral 40 mg/kg; in 3 hours after administration
Protocol: Methods: eight healthy male dogs with the body weight ranging from 12-15 kg were used. The dogs were anesthetized with 30 mg/kg of sodium pentobarbital. The femoral artery was dissected and inserted with a blood pressure transducer to record the blood pressure. The limbs were pierced with electrodes for recording the electrocardiogram. The respiration belt was wrapped around their chest and the respiration rate was recorded. The apparatus used was RM-6000 Polygraph system (NIHON KOHDEN, Japan). The changes in the arterial blood pressure, the heart rate, and the respiration were observed after the test compound was introduced into the stomach of the anesthetized dogs via 14# catheter.

[2] = test system: rats with testis removed; assay: Penile erection caused by stimulating electric current in rats with testes removed (Example 7); format: in vivo, wistar rats; conditions: for Latent period / Swelling time: stimulation 35 min after administration
Source text: Methods: Forty healthy adult male wistar rats were used in the study, with the body weight ranging from 230 g to 250 g. The rats were anesthetized with sodium pentobarbital, and their testes were squeezed into the scrotum. After sterilization, the scrotum was dissected with an operation knife. The testes and epididymis were taken out respectively and then ligated. The wound were sutured and 100,000 unit of penicillin was administrated to each rat for three consecutive days. After breeding for one week, the rats were used for the tests. The animals may be used repeatedly and the interval between any two of the tests was one week. […] Sildenafil at the dose of 50 mg/kg was used as the positive control. The control group is (1% sodium carboxymethyl cellulose). In 35 min after the administration, the penis of the rats was stimulated with SEN-3201 stimulator (NIHON KOHDEN, Japan), with the following parameters: the stimulating voltage of 10V, the time interval (T1) of 250 msec, the deferment time (T2) of 10 msec, the duration (T3) of 500 μsec, and the stimulation rank (n) of 25. At the same time, the latent period (sec) of the penile erection and the penile swelling time (min) were recorded with a three-channel stop-watch.

[3] = test system: anesthetized rats; assay: Blood pressure and heart rate of anesthetized rats (Example 12); format: in vivo, wistar rats
Protocol: Forty male wistar rats with the body weight ranging from 220-240 g were used in the study. Pharmaceuticals: compound (2) and Sildenafil, which were ground and then suspended with 1% of sodium carboxymethyl cellulose. Apparatus: RM-6000 eight-graph system (NIHON KOHDEN, Japan). The doses for administration and the division of the groups: solvent control group (abbreviated as the control group), 20 mg/kg of compound (2), 40 mg/kg of compound (2), 80 mg/kg of compound (2), and 50 mg/kg of Sildenafil. The administration route is through dodecadactylon. Methods: the male wistar rats were taken out and anesthetized with 35 mg/kg of sodium pentobarbital by injecting into the abdominal cavity, on the basis of their body weight. The rats were fixed on the operation table and were performed with the dissection operation of right carotid artery. The catheter with an external diameter of 1 mm was inserted into the right carotid artery. The blood pressure was measured and the electrodes positioned on the skin of the four limbs were used to record the electrocardiogram limb lead II. The catheter with an external diameter of 2 mm was inserted into the dodecadactylon via incision of the epigastric region, for the administration of the pharmaceuticals. RM-6000 eight-graph system (NIHON KOHDEN, Japan) was employed to record. Observation time: the value before administration, the values at 15, 30, 60, 120 and 180 min after the administration.

[4] = test system: rats with testis removed; assay: Duration of penile erection in rats with testis removed (Example 8); format: in vivo, wistar rats
[5] = Preliminary acute toxicity, Bliss method (Example 13); conditions: rat, in vivo, oral and intragastric administration, rats
Protocol: Experimental methods: the toxicity test was conducted by oral and intragastric administration of the pyrazolopyrimidinethione derivatives of the invention using the Bliss method.

[6] = 20 mg/kg through dodecadactylon, at 15 min after administration
[7] = 20 mg/kg through dodecadactylon, at 30 min after administration
[8] = 20 mg/kg through dodecadactylon, at 60 min after administration
[9] = 20 mg/kg through dodecadactylon, at 120 min after administration
[10] = 20 mg/kg through dodecadactylon, value before administration
[11] = 40 mg/kg through dodecadactylon, at 15 min after administration
[12] = 40 mg/kg through dodecadactylon, at 30 min after administration
[13] = 40 mg/kg through dodecadactylon, at 60 min after administration
[14] = 40 mg/kg through dodecadactylon, at 120 min after administration
[15] = 40 mg/kg through dodecadactylon, value before administration
[16] = 80 mg/kg through dodecadactylon, at 15 min after administration
[17] = 80 mg/kg through dodecadactylon, at 30 min after administration
[18] = 80 mg/kg through dodecadactylon, at 60 min after administration
[19] = 80 mg/kg through dodecadactylon, at 120 min after administration
[20] = 80 mg/kg through dodecadactylon, value before administration
[21] = 20, 40 and 80 mg/kg through dodecadactylon

## CCCc1nn(C)c2c(=S)[nH]c(-c3cc(S(=O)(=O)N4C[C@@H](C)N[C@@H](C)C4)ccc3OCC)nc12 [Compound (2), 5-[2-ethoxy-5-(cis-3,5-dimethylpiperazin-1-sulfonyl)phenyl]-1-methyl-3-n-propyl-1,6-dihydro-7H-pyrazolo[4,3-d]pyrimidin-7-thione]
[1]
  arterial blood pressure (systolic and diastolic), heart rate and respiration (frequency and depth), in words: did not experience an evident change
[2]; compared with control
  penile swelling time (in words): lengthened
[2]; compared with control, P<0.001
  latent period of the penile erection (in words): evidently shortened
[2]; compared with sildenafil 50 mg/kg
  penile swelling time compared with positive control sildenafil (in words): more evident
[2]; oral 10 mg/kg
  Latent period: 29.5 ± 4.2 s
  Swelling time: 1069.8 ± 621.5 s
[2]; oral 20 mg/kg
  Latent period: 29.5 ± 4.2 s
  Swelling time: 1480.5 ± 469.7 s
[2]; oral 40 mg/kg
  Latent period: 30.1 ± 3.9 s
  Swelling time: 2675.5 ± 769.2 s
[3]; [6]
  Heart rate: 440 ± 29.7 times/min
  Systolic pressure: 132 ± 29.5 mmHg
  diastolic pressure: 108 ± 29.7 mmHg
[3]; [7]
  Heart rate: 440 ± 29.6 times/min
  Systolic pressure: 134 ± 29.6 mmHg
  diastolic pressure: 104 ± 29.6 mmHg
[3]; [8]
  Heart rate: 436 ± 22.9 times/min
  Systolic pressure: 128 ± 22.9 mmHg
  diastolic pressure: 101 ± 22.9 mmHg
[3]; [9]
  Heart rate: 428 ± 22.6 times/min
  Systolic pressure: 127 ± 22.6 mmHg
  diastolic pressure: 102 ± 22.6 mmHg
[3]; 20 mg/kg through dodecadactylon, before administration
  Heart rate: 445 ± 25.1 times/min
[3]; [10]
  Systolic pressure: 134 ± 7.2 mmHg
  diastolic pressure: 109 ± 14.1 mmHg
[3]; [11]
  Heart rate: 422 ± 29.7 times/min
  Systolic pressure: 130 ± 29.7 mmHg
  diastolic pressure: 109 ± 29.7 mmHg
[3]; [12]
  Heart rate: 427 ± 29.6 times/min
  Systolic pressure: 134 ± 29.6 mmHg
  diastolic pressure: 109 ± 29.6 mmHg
[3]; [13]
  Heart rate: 425 ± 22.9 times/min
  Systolic pressure: 122 ± 22.9 mmHg
  diastolic pressure: 109 ± 22.9 mmHg
[3]; [14]
  Heart rate: 424 ± 22.6 times/min
  Systolic pressure: 133 ± 22.6 mmHg
  diastolic pressure: 112 ± 22.6 mmHg
[3]; 40 mg/kg through dodecadactylon, before administration
  Heart rate: 429 ± 42.8 times/min
[3]; [15]
  Systolic pressure: 129 ± 13.6 mmHg
  diastolic pressure: 109 ± 14.4 mmHg
[3]; [16]
  Heart rate: 439 ± 29.7 times/min
  Systolic pressure: 121 ± 29.7 mmHg
  diastolic pressure: 102 ± 29.7 mmHg
[3]; [17]
  Heart rate: 442 ± 29.6 times/min
  Systolic pressure: 123 ± 29.6 mmHg
  diastolic pressure: 97 ± 29.6 mmHg
[3]; [18]
  Heart rate: 436 ± 22.8 times/min
  Systolic pressure: 121 ± 22.9 mmHg
  diastolic pressure: 96 ± 22.9 mmHg
[3]; [19]
  Heart rate: 438 ± 22.6 times/min
  Systolic pressure: 119 ± 22.6 mmHg
  diastolic pressure: 94 ± 22.6 mmHg
[3]; 80 mg/kg through dodecadactylon, before administration
  Heart rate: 439 ± 22.6 times/min
[3]; [20]
  Systolic pressure: 126 ± 12.1 mmHg
  diastolic pressure: 102 ± 12.0 mmHg
[3]; [21]
  effect on the heart rate (in words): did not exhibit an evident effect
  effect on the systolic pressure and diastolic pressure (in words): did not exhibit an evident effect
[4]; oral 10 mg/kg, at 1 h after administration
  Penile swelling time: 679.6 ± 13.2 s
[4]; oral 10 mg/kg, at 3 h after administration
  Penile swelling time: 544.7 ± 166.9 s
[4]; oral 10 mg/kg, at 6 h after administration
  Penile swelling time: 268.7 ± 146.2 s
[4]; oral 10 mg/kg, at 24 h after administration
  Penile swelling time: 98.6 ± 57.9 s
[4]; oral 10 mg/kg, value before administration
  Penile swelling time: 67.7 ± 12.3 s
[4]; oral 20 mg/kg, at 1 h after administration
  Penile swelling time: 1514.8 ± 258.9 s
[4]; oral 20 mg/kg, at 3 h after administration
  Penile swelling time: 906.0 ± 406.7 s
[4]; oral 20 mg/kg, at 6 h after administration
  Penile swelling time: 275.8 ± 154.2 s
[4]; oral 20 mg/kg, at 24 h after administration
  Penile swelling time: 201.0 ± 85.7 s
[4]; oral 20 mg/kg, value before administration
  Penile swelling time: 82.4 ± 26.6 s
[4]; oral 40 mg/kg and 20 mg/kg
  how long the penile swelling effect lasts after administration: up to 24 hours
[4]; oral 40 mg/kg, at 1 h after administration
  Penile swelling time: 2187.1 ± 547.8 s
[4]; oral 40 mg/kg, at 3 h after administration
  Penile swelling time: 783.0 ± 329.2 s
[4]; oral 40 mg/kg, at 6 h after administration
  Penile swelling time: 678.7 ± 221.8 s
[4]; oral 40 mg/kg, at 24 h after administration
  Penile swelling time: 194.0 ± 65.1 s
[4]; oral 40 mg/kg, value before administration
  Penile swelling time: 84.0 ± 18.4 s
[5]
  LD50: > 3000 mg/kg
